Laboratory results: article PMC11059541 (Tuberculosis (Edinburgh, Scotland), 2011)

Legend:
MtMetAP1a = MtMetAP1a (Mycobacterium tuberculosis, UniProt P9WK21); assay: MetAP enzyme inhibition assay; type: biochemical; conditions: for selectivity for both MtMetAPs over human MetAPs: MtMetAP1a and MtMetAP1c relative to HsMetAP1 and HsMetAP2, from IC50 values
MtMetAP1c = MtMetAP1c (Mycobacterium tuberculosis, UniProt P9WK19); assay: MetAP enzyme inhibition assay; type: biochemical
M. tuberculosis H37Rv = assay: Minimum Inhibitory Concentration in replicating M. tuberculosis; type: cell-based, Mycobacterium tuberculosis; conditions: ratio of M.I.C. values
[1] = tested on: aged non-growing M. tuberculosis H37Ra; assay: Activity on aged non-growing M. tuberculosis; conditions: 2 month old H37Ra culture, acid 7H9 pH5.5, 1% oxygen

Chain of MtMetAP1a (P9WK21 whole entry): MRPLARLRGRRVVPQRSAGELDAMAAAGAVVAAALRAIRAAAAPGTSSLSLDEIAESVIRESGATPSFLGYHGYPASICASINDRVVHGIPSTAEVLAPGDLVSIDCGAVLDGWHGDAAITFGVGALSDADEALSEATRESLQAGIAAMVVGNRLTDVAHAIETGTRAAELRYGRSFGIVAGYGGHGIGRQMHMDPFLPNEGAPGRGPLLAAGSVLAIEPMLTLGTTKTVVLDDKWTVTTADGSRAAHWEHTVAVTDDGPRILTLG
Chain of MtMetAP1c (P9WK19 whole entry): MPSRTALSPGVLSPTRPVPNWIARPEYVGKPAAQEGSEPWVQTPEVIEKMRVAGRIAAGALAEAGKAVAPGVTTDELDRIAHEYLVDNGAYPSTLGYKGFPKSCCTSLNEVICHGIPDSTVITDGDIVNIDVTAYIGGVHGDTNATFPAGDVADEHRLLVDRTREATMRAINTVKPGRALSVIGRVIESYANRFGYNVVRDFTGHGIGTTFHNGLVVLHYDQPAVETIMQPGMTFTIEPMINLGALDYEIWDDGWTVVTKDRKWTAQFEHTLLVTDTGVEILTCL

SMILES	IC50 (MtMetAP1a) [µM]	selectivity for both MtMetAPs over human MetAPs (MtMetAP1a)	IC50 (MtMetAP1c) [µM]	potency in replicating M. tuberculosis culture relative to CQ (M. tuberculosis H37Rv)	M.I.C. Aged non-growing M. tuberculosis [1] [µg/mL]
Oc1c(Br)cc(Cl)c2cccnc12 [CLBQ14]	5.44	greater than 19 folds	4.92	two-fold	0.65 to 1.62
Oc1c(I)cc(Cl)c2cccnc12 [Clioquinol (CQ), clioquinol, reference compound]	9.25	less than 10 folds	11.2		
